From ChEMBL document CHEMBL5230159, “Targeting Metalloenzymes by Boron-Containing Metal-Binding Pharmacophores” (J Med Chem, 2021) come the findings set out here.

The target in data set [1] is T1, Arginase-2, mitochondrial (Homo sapiens, UniProt P78540).
T1 sequence (P78540 whole entry): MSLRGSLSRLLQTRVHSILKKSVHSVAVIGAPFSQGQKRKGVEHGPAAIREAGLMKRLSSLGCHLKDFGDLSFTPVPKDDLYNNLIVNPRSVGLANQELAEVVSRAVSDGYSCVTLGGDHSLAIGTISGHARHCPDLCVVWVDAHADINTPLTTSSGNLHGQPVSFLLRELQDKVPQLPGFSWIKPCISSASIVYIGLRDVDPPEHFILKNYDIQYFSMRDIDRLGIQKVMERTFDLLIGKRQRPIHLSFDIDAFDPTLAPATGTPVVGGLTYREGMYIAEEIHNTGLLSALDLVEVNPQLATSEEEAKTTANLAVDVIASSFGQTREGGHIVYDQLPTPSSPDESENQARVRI
Nature of the data set: Binding affinity to human Arg II.

Data set [2] addresses T2, 3',5'-cyclic-AMP phosphodiesterase 4B (Homo sapiens, UniProt Q07343). Nature of the data set: Inhibition of human PDE4 catalytic domain expressed in Escherichia coli.
The target of data set [3] is T3, Autotaxin (Homo sapiens, UniProt Q13822). Nature of the data set: Inhibition of human recombinant ATX.
In another data set the target is Carbonic anhydrase 9 (Homo sapiens, UniProt Q16790). In words: Binding affinity to human CA9 assessed as inhibition constant.
A further data set has as its target Carbonic anhydrase 12 (Homo sapiens, UniProt O43570). In words: Binding affinity to human CA12 assessed as inhibition constant.
Data set [4] is described as follows: Inhibition of beta-lactamase TEM-1 (unknown origin). Details: species or system Bacteria.
Data set [5] is described as follows: Inhibition of Escherichia coli NDM-1.
For a further data set, the target named is BlaVIM-1 (Escherichia coli, UniProt Q8GDC1). In words: Inhibition of Escherichia coli VIM-1.
Data set [6] in a line: Inhibition of Escherichia coli VIM-2.
Data set [7] can be described thus: Inhibition of Escherichia coli IMP-1.
In the next data set the target is Carbonic anhydrase 1 (Homo sapiens, UniProt P00915). In words: Binding affinity to human CA1 assessed as inhibition constant.
Carbonic anhydrase 1, sequence (P00915 whole entry): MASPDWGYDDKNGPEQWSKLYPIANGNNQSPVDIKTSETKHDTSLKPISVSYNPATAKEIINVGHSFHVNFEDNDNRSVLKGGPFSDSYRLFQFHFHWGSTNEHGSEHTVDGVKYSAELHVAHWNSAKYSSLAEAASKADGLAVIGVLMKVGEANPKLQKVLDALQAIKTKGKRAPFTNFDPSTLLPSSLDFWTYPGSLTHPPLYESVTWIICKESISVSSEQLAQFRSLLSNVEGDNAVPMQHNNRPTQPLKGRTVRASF
In data set [8] the target is T4, Arginase-1 (Homo sapiens, UniProt P05089).
T4 sequence (P05089 whole entry): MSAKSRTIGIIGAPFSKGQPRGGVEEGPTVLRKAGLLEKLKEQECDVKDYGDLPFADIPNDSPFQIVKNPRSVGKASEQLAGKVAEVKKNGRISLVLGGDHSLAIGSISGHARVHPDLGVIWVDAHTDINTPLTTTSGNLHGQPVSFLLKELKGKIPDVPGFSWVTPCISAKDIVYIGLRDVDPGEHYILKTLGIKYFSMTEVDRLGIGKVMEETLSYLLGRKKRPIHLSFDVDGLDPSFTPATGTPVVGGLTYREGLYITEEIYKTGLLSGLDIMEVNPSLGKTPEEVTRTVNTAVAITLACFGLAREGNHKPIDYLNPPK
In words: Inhibition of human Arg I.

Data set [9] in a line: Oral bioavailability in C57BL/6 mouse at 25 to 50 mg/kg by LC-MS/MS analysis. Format: ADME, organism-based. As to conditions: in vivo, dose 25-50 mg/kg.
Data set [10] can be described thus: Clearance in C57BL/6 mouse at 25 to 50 mg/kg, po by LC-MS/MS analysis. It counts as ADME, organism-based. As to conditions: in vivo, dose 25-50 mg/kg.
Data set [11] deals with T2, 3',5'-cyclic-AMP phosphodiesterase 4B. Nature of the data set: Inhibition of human PDE4 catalytic domain expressed in Escherichia coli at 10 uM relative to control.
Data set [12] deals with T5, Arginase-1 (Rattus norvegicus, UniProt P07824).
T5 sequence (P07824 whole entry): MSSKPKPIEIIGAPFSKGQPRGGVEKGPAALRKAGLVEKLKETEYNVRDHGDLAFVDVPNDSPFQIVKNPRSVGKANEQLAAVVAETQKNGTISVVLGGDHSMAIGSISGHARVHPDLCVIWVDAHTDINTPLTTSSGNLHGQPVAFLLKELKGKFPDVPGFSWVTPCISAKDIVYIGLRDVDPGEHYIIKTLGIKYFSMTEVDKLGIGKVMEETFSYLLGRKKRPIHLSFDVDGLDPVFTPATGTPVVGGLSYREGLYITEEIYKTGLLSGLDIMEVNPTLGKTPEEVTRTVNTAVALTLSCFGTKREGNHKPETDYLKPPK
In words: Binding affinity to rat Arg I.

The target of data set [13] is T5, Arginase-1. In words: Inhibition of rat liver arginase using L-arginine as substrate incubated for 10 mins followed by substrate addition by scintillation counting analysis. Format: tissue-based.
Data set [14] deals with T3, Autotaxin. Nature of the data set: Inhibition of human recombinant ATX using ABTS as substrate by absorbance based analysis.
Data set [15] concerns the target T4, Arginase-1. Nature of the data set: Binding affinity to human Arg I.

T2 sequence (Q07343 whole entry, the tested form may be a part): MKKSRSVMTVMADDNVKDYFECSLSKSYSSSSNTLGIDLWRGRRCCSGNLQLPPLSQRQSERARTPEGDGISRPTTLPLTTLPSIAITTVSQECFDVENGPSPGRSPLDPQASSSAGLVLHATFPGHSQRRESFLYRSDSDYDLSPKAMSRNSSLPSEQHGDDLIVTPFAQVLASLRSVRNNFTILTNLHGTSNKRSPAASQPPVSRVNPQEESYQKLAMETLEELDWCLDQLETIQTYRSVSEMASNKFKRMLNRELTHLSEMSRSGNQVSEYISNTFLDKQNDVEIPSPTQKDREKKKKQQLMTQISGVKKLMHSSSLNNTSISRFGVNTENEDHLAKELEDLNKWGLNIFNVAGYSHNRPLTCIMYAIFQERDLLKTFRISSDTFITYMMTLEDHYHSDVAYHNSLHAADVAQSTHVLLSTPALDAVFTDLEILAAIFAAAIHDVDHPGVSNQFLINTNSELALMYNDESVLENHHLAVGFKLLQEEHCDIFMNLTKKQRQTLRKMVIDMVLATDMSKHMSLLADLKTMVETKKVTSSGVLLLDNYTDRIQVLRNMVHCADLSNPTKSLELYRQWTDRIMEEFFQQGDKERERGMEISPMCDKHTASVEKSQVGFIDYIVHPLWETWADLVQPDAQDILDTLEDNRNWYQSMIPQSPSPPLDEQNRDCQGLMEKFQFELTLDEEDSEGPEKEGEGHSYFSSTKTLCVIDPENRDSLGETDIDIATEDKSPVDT
Carbonic anhydrase 12, sequence (O43570 whole entry): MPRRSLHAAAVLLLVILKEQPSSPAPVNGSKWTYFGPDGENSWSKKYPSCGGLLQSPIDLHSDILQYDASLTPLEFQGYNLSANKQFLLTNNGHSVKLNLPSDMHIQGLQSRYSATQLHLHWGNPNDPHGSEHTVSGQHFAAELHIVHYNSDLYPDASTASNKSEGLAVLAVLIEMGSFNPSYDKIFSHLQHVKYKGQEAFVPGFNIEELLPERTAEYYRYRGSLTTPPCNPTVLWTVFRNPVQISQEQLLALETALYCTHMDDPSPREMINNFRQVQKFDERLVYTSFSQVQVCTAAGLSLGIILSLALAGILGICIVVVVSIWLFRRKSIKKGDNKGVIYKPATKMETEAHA

Usually Ki stands for a dissociation constant, usually derived from enzyme kinetics or from competition with a known ligand. Turning to `OB(O)/C=C/Cc1ccccc1`, in data set [1], affinity was put at a Ki of 0.089 µM.

For orientation: IC50 means the concentration needed to halve the response being measured. The molecule `N#Cc1ccc(Oc2ccc3c(c2)COB3O)cc1C#N` yielded a concentration for half-maximal inhibition (IC50) in data set [2] of 0.06 µM.

With `O=C1N=C(N2CCN(Cc3ccc(C(=O)O)cc3)CC2)S/C1=C\c1ccc(Cl)c(Cl)c1`, at Autotaxin [3], the IC50 was 0.025 µM.

`N#Cc1ccc(Oc2ccc3c(c2)COB3O)cc1OCCO` showed a 50% inhibitory concentration (IC50) in [2] of 0.024 µM.

As to `OB1OCc2ccc(NC(=S)Nc3ccc(C(F)(F)F)cc3)cc21`, the Ki at Carbonic anhydrase 9 turned out to be 0.093 µM; on Carbonic anhydrase 12, 0.071 µM.

Consider `CC(=O)N[C@H]1Cc2cccc(C(=O)O)c2OB1O`, for which, in data set [4], the midpoint of inhibition, the IC50, lay at 0.013 µM.

Regarding `NCCN[C@H]1CC[C@H](CC(=O)N[C@H]2Cc3cccc(C(=O)O)c3OB2O)CC1`, the IC50 in [5] amounted to 0.01 µM; on BlaVIM-1 it was 0.0079 µM; in data set [6] it was 0.0005 µM; in data set [7], 2.5 µM.

`CC(=O)OCCOc1cc(Oc2ccc3c(c2)COB3O)ccc1C#N` had a half-inhibitory concentration (IC50) in [2] of 0.0007 µM.

Consider `COc1ccc(C)cc1NC(=O)Nc1ccc2c(c1)B(O)OC2`, for which the results for the inhibitory constant (Ki) on Carbonic anhydrase 1, at Carbonic anhydrase 9 and on Carbonic anhydrase 12 were 0.098 µM, 0.414 µM and 0.069 µM, respectively.

`N[C@@H](CCCCB(O)O)C(=O)O` registered an IC50 at Arginase-1 [8] of 1.45 µM.

One may read the bioavailability as dose-corrected exposure relative to a reference, in per cent. One may read the CL/F as the apparent clearance, not corrected for the fraction that reaches the circulation. Regarding `C[C@H](N)C(=O)N1C[C@H](CCCB(O)O)[C@](N)(C(=O)O)C1`, the bioavailability in data set [9] turned out to be 91%. In [10], the CL/F was found to be 10 mL/min/kg.

Molecule `CCOc1nc(-c2cncc(C3COB(O)C3)c2)c(F)cc1OC` (stereo not drawn) showed an IC50 in data set [2] of 0.00012 µM.

As usually defined, the inhibition is the share of the control response that was lost under treatment. A lower inhibition goes with a response near the control. `O=C(O)c1ccc(Oc2ccc3c(c2)COB3O)nc1` displayed a half-inhibitory concentration (IC50) in data set [2] of more than 0.01 µM. Further, the inhibition in [11] amounted to 5%.

In [2], `N#Cc1ccc(Oc2ccc3c(c2)COB3O)nc1` gave a concentration for half-maximal inhibition (IC50) of 0.18 µM.

`N[C@@H](CCCCC=O)C(=O)O` gave an inhibition constant (Ki) on Arginase-1 [12] of 60 µM.

As to `N#Cc1ccc(Oc2ccc3c(c2)COB3O)cc1` [CRISABOROLE], 0.11 µM corresponded to half-maximal inhibition in data set [2] (IC50).

Turning to `N[C@@H](CC/C=C/B(O)O)C(=O)O`, 15 µM corresponded to half-maximal inhibition at Arginase-1 [13] (IC50).

Regarding `NC(Cc1ccc(B(O)O)cc1)C(=O)O` (stereo not drawn), the IC50 against Arginase-1 [13] is 6000 µM.

For orientation: Kd means the constant that tells how readily two partners part at equilibrium. A high value points to lower affinity. `NC(CCCCC(=O)O)C(=O)O` (stereo not drawn) displayed a Kd at Arginase-1 [12] of 30000 µM. In other words, the millimolar range.

With `O=C(O)c1cccc2c1OB(O)[C@@H](NC(=O)C1CCCCC1)C2`, the results for the half-maximal inhibitory concentration (IC50) in [5] and in [6] were 2.04 µM and 0.051 µM, respectively.

Take `O=C1S/C(=C\c2ccc(OCc3ccccc3B(O)O)cc2)C(=O)N1Cc1ccc(F)cc1`: the IC50 at Autotaxin [14] is more than 0.005 µM.

In turn, `Nc1nccn1CCC[C@H](N)C(=O)O` displayed a Ki at Arginase-1 [15] of 30000 µM.

For `CCOC(=O)c1ccc(Oc2ccc3c(c2)COB3O)nc1`, the IC50 in data set [2] worked out at 0.047 µM.

At Arginase-1 [15], `N[C@@H](CCCC[N+](=O)[O-])C(=O)O` gave a Kd of 60 µM. This counts as double-digit micromolar.
